Calls of active or inactive are those of the source. The rule behind the calls is not given here.
Tests used:
[1] = target: T1, NAD-dependent protein deacetylase sirtuin-3, mitochondrial (Homo sapiens) (UniProt Q9NTG7); experiment: Inhibition of recombinant His-tagged SIRT3 (unknown origin) using Fluor de Lys acetylated KI179 as substrate at 200 uM incubated for 5 mins followed by enzyme addition measured after 1 hr by fluorescence assay relative to control
T1 sequence (whole entry): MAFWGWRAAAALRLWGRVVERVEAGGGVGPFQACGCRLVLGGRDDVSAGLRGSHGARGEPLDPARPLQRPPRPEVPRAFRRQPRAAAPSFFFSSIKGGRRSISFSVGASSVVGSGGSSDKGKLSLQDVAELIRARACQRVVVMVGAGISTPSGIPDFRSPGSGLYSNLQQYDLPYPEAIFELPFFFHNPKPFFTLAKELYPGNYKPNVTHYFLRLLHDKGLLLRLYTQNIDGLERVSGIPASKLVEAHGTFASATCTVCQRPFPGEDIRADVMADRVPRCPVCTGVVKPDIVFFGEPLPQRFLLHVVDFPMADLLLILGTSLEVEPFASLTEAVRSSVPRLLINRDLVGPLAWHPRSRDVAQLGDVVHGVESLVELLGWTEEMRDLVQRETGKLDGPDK

[2] = target: T2, NAD-dependent protein deacetylase sirtuin-1 (Homo sapiens) (UniProt Q96EB6); experiment: Inhibition of recombinant GST-tagged SIRT1 (unknown origin) using Fluor de Lys acetylated KI177 as substrate at 200 uM incubated for 5 mins followed by enzyme addition measured after 1 hr by fluorescence assay relative to control
T2 sequence (whole entry): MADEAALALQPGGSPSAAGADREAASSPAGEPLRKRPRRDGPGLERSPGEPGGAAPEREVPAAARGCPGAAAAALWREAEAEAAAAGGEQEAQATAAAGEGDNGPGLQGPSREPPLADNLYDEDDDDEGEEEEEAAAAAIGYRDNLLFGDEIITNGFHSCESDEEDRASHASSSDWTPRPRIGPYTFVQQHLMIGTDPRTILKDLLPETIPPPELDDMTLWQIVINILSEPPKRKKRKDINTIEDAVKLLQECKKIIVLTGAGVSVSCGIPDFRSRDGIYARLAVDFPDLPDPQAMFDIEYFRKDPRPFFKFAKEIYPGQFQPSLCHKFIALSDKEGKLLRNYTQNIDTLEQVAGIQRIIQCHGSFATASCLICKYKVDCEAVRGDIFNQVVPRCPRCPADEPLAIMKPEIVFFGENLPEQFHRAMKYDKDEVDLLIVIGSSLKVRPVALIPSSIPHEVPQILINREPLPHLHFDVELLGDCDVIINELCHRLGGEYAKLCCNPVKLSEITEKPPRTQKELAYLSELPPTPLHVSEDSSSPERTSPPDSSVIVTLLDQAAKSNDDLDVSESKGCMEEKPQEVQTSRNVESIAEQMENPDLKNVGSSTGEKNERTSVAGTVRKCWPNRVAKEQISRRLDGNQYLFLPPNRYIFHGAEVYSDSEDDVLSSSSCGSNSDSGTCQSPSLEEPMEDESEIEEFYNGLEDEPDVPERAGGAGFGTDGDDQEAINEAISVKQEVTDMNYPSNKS

[3] = target: T3, NAD-dependent protein deacetylase sirtuin-2 (Homo sapiens) (UniProt Q8IXJ6); experiment: Inhibition of recombinant GST-tagged SIRT2 (unknown origin) using Fluor de Lys acetylated KI179 as substrate at 200 uM incubated for 5 mins followed by enzyme addition measured after 1 hr by fluorescence assay relative to control
T3 sequence (whole entry): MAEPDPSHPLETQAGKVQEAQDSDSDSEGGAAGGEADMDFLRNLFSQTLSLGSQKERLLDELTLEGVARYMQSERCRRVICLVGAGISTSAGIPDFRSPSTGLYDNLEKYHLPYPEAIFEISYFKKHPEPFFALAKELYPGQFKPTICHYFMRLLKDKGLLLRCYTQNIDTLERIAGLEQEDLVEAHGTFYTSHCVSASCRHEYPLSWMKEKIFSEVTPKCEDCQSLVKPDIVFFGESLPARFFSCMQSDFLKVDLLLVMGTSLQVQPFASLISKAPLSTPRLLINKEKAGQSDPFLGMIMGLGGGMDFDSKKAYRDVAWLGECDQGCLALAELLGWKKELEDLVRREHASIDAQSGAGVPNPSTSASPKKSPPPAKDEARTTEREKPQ

inhibition [1] [%] | inhibition [2] | inhibition [3] [%] | Compound
6.7 |  |  | CC(=O)Nc1ccc(NC(=O)CCC(=O)OCC(=O)c2cccc([N+](=O)[O-])c2)cc1
51 | 17% | 44 | O=C(Cc1ccccc1)Nc1ccc2oc(-c3ccccc3Cl)nc2c1
13 |  |  | O=C(Cc1ccccc1)Nc1ccc2oc(-c3ccc(Cl)cc3)nc2c1
17 |  |  | Cc1ccc(-c2nc3cc(NC(=O)Cc4ccccc4)ccc3o2)cc1
72 |  |  | O=C1C(Cl)=C(Nc2cccc(O)c2)C(=O)N1CCc1ccccc1
71 | 27% | 72 | O=C(Cc1ccccc1)Nc1ccc2oc(-c3ccc(Cl)cc3Cl)nc2c1
11 |  |  | O=C(c1ccccc1)N1CCN(C2CC(=O)N(c3cccc(Cl)c3)C2=O)CC1 (stereo not given)
13 |  |  | O=C(Cc1ccccc1)Nc1ccc2oc(-c3ccc(F)cc3Cl)nc2c1
8.4 |  |  | COc1ccc(N2C(=O)CC(N3CCN(c4ccccc4O)CC3)C2=O)cc1 (stereo not given)
17 |  |  | O=C(Cc1ccc(Cl)cc1)Nc1ccc2oc(-c3ccccc3F)nc2c1
16 |  |  | O=C(Cc1ccccc1)Nc1ccc2oc(-c3ccccc3F)nc2c1
41 |  |  | O=C(Cc1ccccc1)Nc1ccc2oc(-c3cc(F)c(F)cc3Cl)nc2c1
10 |  |  | Cc1ccccc1CC1CCN(CCCNC(=O)Nc2ccccc2)CC1
17 |  |  | O=C(Cc1ccccc1)Nc1ccc2oc(-c3cccc(Cl)c3)nc2c1
22 |  |  | O=C(Nc1ccc(Nc2ccccc2)cc1)c1c(Cl)cccc1Cl
5 |  |  | CCOc1ccc(N2C(=O)CC(N3CCN(C(=O)c4ccccc4)CC3)C2=O)cc1 (stereo not given)
5.6 |  |  | Cc1cccc(CN2CCC(CNC(=O)NCc3ccc(F)cc3)CC2)c1
48 | 27% | 78 | O=C(/C=C/c1ccccc1)Nc1ccc2oc(-c3ccccc3Cl)nc2c1
6.3 |  |  | O=C(CSCC(=O)Nc1ccc2ccccc2c1)NCc1ccccc1
6.8 |  |  | COc1cccc(-c2noc(CCC(=O)Nc3ccc(NC(C)=O)cc3)n2)c1
6.6 |  |  | Cc1ccc(N2C(=O)CC(N3CCN(c4ccc(F)cc4)CC3)C2=O)cc1 (stereo not given)
7.6 |  |  | COc1ccc(N2C(=O)CC(NCCc3ccc(S(N)(=O)=O)cc3)C2=O)cc1 (stereo not given)
1.9 |  |  | O=C(CCC(=O)Nc1ccc(F)c(Cl)c1)Nc1ccc(F)c(Cl)c1
11 |  |  | O=C1CC(N2CCN(c3cccc(C(F)(F)F)c3)CC2)C(=O)N1c1ccc(I)cc1 (stereo not given)

inhibition [1] [%] | inhibition [2] | inhibition [3] [%] | Compound
5.6 |  |  | COc1ccc(N2C(=O)CC(N3CCN(c4ccc(S(C)(=O)=O)cc4)CC3)C2=O)cc1 (stereo not given)
48 | 19% | 40 | O=C(Cc1ccccc1)Nc1ccc2oc(-c3cccc(Cl)c3Cl)nc2c1
32 |  |  | Cc1cccc(-c2nc3cc(NC(=O)Cc4ccccc4)ccc3o2)c1
7.5 |  |  | O=C(NCC1CCN(Cc2ccccc2Cl)CC1)Nc1cccc(Cl)c1
6.9 |  |  | O=C1CC(N2CCN(c3ccc(F)cc3)CC2)C(=O)N1Cc1ccccc1 (stereo not given)
39 | inactive | 35 | O=C(CSc1ncnc2c1oc1ccccc12)Nc1cccc(O)c1
34 |  |  | NS(=O)(=O)c1ccc(NC(=O)COC(=O)CN2C(=O)C(=O)c3ccccc32)cc1
74 |  |  | O=C1CC(N2CCN(c3ccc([N+](=O)[O-])cc3)CC2)C(=O)N1c1ccccc1 (stereo not given)
11 |  |  | NS(=O)(=O)c1ccc(CCNC2CC(=O)N(c3ccc(Cl)c(Cl)c3)C2=O)cc1 (stereo not given)
10 |  |  | CCOc1ccc(N2C(=O)CC(N3CCN(C(=O)c4cccnc4)CC3)C2=O)cc1 (stereo not given)
20 |  |  | O=C1CC(N2CCN(c3cccc(C(F)(F)F)c3)CC2)C(=O)N1c1ccc(Cl)cc1 (stereo not given)
9.2 |  |  | O=C1CC(N2CCN(c3ccc(Cl)cc3)CC2)C(=O)N1c1ccc(F)cc1 (stereo not given)
32 |  |  | O=C(Cc1ccc(Cl)cc1)Nc1ccc2oc(-c3ccccc3Br)nc2c1
15 |  |  | O=C1CC(N2CCC(Cc3ccccc3)CC2)C(=O)N1c1ccc(F)cc1 (stereo not given)
7.5 |  |  | Cc1ccc(NC(=O)NCC2CCN(Cc3cc(C)ccc3Cl)CC2)c(C)c1
13 |  |  | Cc1cccc(N2C(=O)CC(N3CCN(c4cccc(C(F)(F)F)c4)CC3)C2=O)c1 (stereo not given)
65 | 33% | 73 | O=C(Cc1ccccc1)Nc1ccc2oc(-c3cc(Cl)ccc3Cl)nc2c1
6.4 |  |  | O=C1CC(N2CCN(c3ccc(F)cc3)CC2)C(=O)N1c1ccc2c(c1)OCO2 (stereo not given)
13 |  |  | O=C1CC(N2CCN(c3cccc(C(F)(F)F)c3)CC2)C(=O)N1c1cccc(Cl)c1 (stereo not given)
44 |  |  | COc1cccc(-c2nc3cc(NC(=O)Cc4ccccc4)ccc3o2)c1
38 |  |  | O=C(/C=C/c1ccccc1)Nc1ccc2oc(-c3ccccc3F)nc2c1
16 |  |  | COc1ccc(CCNC2CC(=O)N(CCc3ccc(OC)c(OC)c3)C2=O)cc1OC (stereo not given)
6.5 |  |  | O=C1CC(N2CCN(c3ccc(O)cc3)CC2)C(=O)N1c1ccccc1 (stereo not given)
33 |  |  | O=C(Cc1ccccc1)Nc1ccc2oc(-c3ccccc3Br)nc2c1

From ChEMBL document CHEMBL2380241, “Identification of novel SIRT3 inhibitor scaffolds by virtual screening” (Bioorg Med Chem Lett, 2013)
